{
  "source": "patent US20090232761A1",
  "about": "“Use of a Composition Comprising Pentane-1, 5-Diol as Deodorant” (priority 2005, published 2009)",
  "assay": "Napkin sprayed with pentane-1,5-diol solution, dried, used to remove urine; smell assessed",
  "parameters": "species or system human being",
  "conditions": "active solutions containing 10% (v/v) and 30% (v/v) sprayed onto disposable napkin, dried at room temperature; control water alone",
  "description": "Active solutions containing 10% (v/v) and 30% (v/v) pentane-1,5-diol were sprayed onto a disposable napkin until the complete area of the napkin was moistened. The napkin was left at room temperature until the napkin was dry. The napkin was then used to remove urine from a human being. […] As a control was water used alone. The same amount of water and the active solution were used.",
  "data": [
    {"smiles": "OCCCCCO", "note": "[pentane-1,5-diol]", "values": [
      {"measurement": "smell of urine from the napkin", "value": "no smell of urine"}
    ]}
  ]
}
